# Experimental data: ChEMBL document CHEMBL1629567, “Pharmacodynamics of cidofovir for vaccinia virus infection in an in vitro hollow-fiber infection model system” (Antimicrob Agents Chemother, 2009)
# Columns and labels:
# [1] = AUC in cynomolgus monkey with probenecid at 5 mg/kg six dose regimen for 13 days; format: ADME, organism-based, Macaca fascicularis; design: dose 5 mg/kg; conditions: plasma
# [2] = AUC (0 to 24 hrs) in hollow-fiber infection model at >50 uM as continuous infusion; format: ADME; design: dose 50 uM, time < 24 hr
# Vaccinia virus [3] = experiment: Antiviral activity against Vaccinia virus WR infected in cynomolgus monkey with probenecid assessed as decrease in plasma viral titer at 6 dose regimen of 2.5 mg/kg for 13 days; format: functional, Orthopoxvirus vaccinia; design: scale not given: the % may be the effect or the level left
# Vaccinia virus [4] = experiment: Antiviral activity against Vaccinia virus IHD-W ATCC VR-1441 infected in HeLaS3 cells after 3 to 5 days by plaque assay; format: functional, organism-based; conditions: Orthopoxvirus vaccinia, IHD-W ATCC VR-1441, HeLa S3
# [5] = AUC (0 to 24 hrs) in hollow-fiber infection model at 3 uM as continuous infusion; format: ADME; design: time < 24 hr, dose 3 uM
# [6] = AUC in cynomolgus monkey with probenecid at 5 mg/kg five dose regimen for 13 days; format: ADME, organism-based, Macaca fascicularis; design: dose 5 mg/kg; conditions: plasma
# [7] = AUC in cynomolgus monkey with probenecid at 5 mg/kg single dose regimen for 13 days; format: ADME, organism-based, Macaca fascicularis; design: dose 5 mg/kg; conditions: plasma
# Variola major virus = experiment: Antiviral activity against Variola major virus; format: functional
# [8] = AUC in cynomolgus monkey with probenecid at 2.5 mg/kg; format: ADME, organism-based, Macaca fascicularis; design: dose 2.5 mg/kg; conditions: plasma
# Vaccinia virus [9] = experiment: Antiviral activity against Vaccinia virus WR infected in cynomolgus monkey with probenecid assessed as decrease in plasma viral titer at 5 dose regimen of 2.5 mg/kg for 13 days; format: functional; conditions: Orthopoxvirus vaccinia, in Macaca fascicularis, 312 h
# [10] = Antiviral activity against Vaccinia virus IHD-J ATCC VR-156 infected in HeLaS3 cells after 3 to 5 days by plaque assay; format: functional, cell-based; conditions: ATCC VR-156, HeLa S3
# [11] = AUC (0 to infinity) in human at 5 mg/kg administered as single dose; format: ADME, organism-based; design: time infinity, dose 5 mg/kg; conditions: plasma
smiles,measurement,setting,value
Nc1ccn(C[C@@H](CO)OCP(=O)(O)O)c(=O)n1.O.O [CIDOFOVIR],AUC at 312 h,[1],617 µM·h
same,"AUC(0-t) at 24 h, 50 µM",[2],> 1200 µM·h
same,Activity,Vaccinia virus [3],<10%
same,EC50,Vaccinia virus [4],20.6 µM
same,"AUC(0-t) at 24 h, 3 µM",[5],72 µM·h
same,AUC at 312 h,[6],514 µM·h
same,AUC at 312 h,[7],103 µM·h
same,Activity,Variola major virus,6 µM
same,AUC,[8],14400 ng·h/mL
same,Emax at 2.5 mg/kg,Vaccinia virus [9],30%
same,EC50,[10],18.7 µM
same,AUC(0-inf),[11],75 µM·h
